Reference: paper PMC8209004, “Structural basis of GTPase-mediated mitochondrial ribosome biogenesis and recycling” (Nature Communications, 2021)

Biological target: T1, GTPBP6 (Homo sapiens, UniProt O43824)
T1 construct: Δ43GTPBP6 (first 43 residues removed); 6xHis-MBP tag cleaved with TEV; expressed in E. coli BL21 (DE3) RIL; modelled residues 94-515
T1 sequence (O43824 44-516): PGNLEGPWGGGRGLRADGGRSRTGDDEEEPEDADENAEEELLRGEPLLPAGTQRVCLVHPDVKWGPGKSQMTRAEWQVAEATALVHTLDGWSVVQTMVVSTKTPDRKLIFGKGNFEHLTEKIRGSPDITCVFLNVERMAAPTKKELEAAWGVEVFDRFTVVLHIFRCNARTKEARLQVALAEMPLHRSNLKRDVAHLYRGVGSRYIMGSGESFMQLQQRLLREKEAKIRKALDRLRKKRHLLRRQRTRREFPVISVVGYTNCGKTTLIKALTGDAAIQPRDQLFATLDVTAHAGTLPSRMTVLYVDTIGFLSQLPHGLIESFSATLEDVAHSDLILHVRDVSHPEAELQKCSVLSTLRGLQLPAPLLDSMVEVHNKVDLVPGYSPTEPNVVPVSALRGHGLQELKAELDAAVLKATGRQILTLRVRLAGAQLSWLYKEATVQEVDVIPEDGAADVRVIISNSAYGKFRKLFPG
Experiment: cryo-EM structure of GTPBP6-bound mtLSU
Assay type: binding
Settings: bound in GTPase domain; 1 mM GTP and 1 mM ATP, pH 7.4, 4 °C; biogenesis intermediate at 2.6 Å and mature mtLSU at 2.7 Å

Nc1nc2c(ncn2[C@@H]2O[C@H](COP(=O)(O)OP(=O)(O)OP(=O)(O)O)[C@@H](O)[C@H]2O)c(=O)[nH]1 [GTP]
cryo-EM structure of GTPBP6-bound mtLSU: shows clear density for a bound GTP molecule
